Data reported in patent publication US7902252B2, “Inhibitors of D-amino acid oxidase” (Sepracor, Inc., priority 2007, dated 2011).

molecular target: Human DAAO (Homo sapiens, UniProt P14920); experiment: D-Amino Acid Oxidase enzyme assay (D-serine, horseradish peroxidase/Amplex Red coupled fluorescence); format: biochemical; settings: D-serine 5 mM, pH 7.4
Protocol: DAAO enzyme activity was measured using the substrate D-serine at its Michaelis-Menton Km of 5 mM. The rate of oxidation is measured as a rate of production of hydrogen peroxide, which was detected using the enzyme horseradish peroxidase (Sigma cat. No. P-8375). This coupled reaction uses the enzyme substrate Amplex Red (Molecular Probes), which is converted to the fluorescent reaction product, resorufin (excitation 530-560 nm; emission ˜590 nm). Although DAAO has a higher pH optimum, all reagents were prepared in 50 mM sodium phosphate buffer at pH 7.4 and inhibition curves were generated at this pH.
The final concentrations of components in 200 μl total volume per well (black clear-bottom 96-well plate, Costar) were:
(a) Horseradish peroxidase: 4 Units per mL
(d) Amplex Red reagent: 50 uM
The reactions were initiated by addition of DAAO enzyme and the fluorescence was monitored. H2O2 was added at 16 uM final concentration to a control well on each plate to test for compound interference with a coupled enzyme. Inhibition curves were generated in the presence of varying concentrations of the inhibitor and IC50 values were calculated for each inhibitor.

Chain of Human DAAO (P14920 whole entry): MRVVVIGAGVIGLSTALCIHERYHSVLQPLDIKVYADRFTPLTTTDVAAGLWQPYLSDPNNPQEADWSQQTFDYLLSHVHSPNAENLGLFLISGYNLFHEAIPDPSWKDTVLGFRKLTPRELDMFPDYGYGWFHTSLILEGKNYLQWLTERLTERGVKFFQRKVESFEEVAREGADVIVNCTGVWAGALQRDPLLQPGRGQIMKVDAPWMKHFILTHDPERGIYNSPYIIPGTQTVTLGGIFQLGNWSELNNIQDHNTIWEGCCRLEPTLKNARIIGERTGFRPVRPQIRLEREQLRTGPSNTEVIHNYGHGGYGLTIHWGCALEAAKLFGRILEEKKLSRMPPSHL

Row | IC50 [µM] | Compound
1 | ≤ 0.1 | O=C(O)c1cc2c([nH]1)CCC2Cc1ccccc1 (stereo not shown) [Compound 17, 4-benzyl-1,4,5,6-tetrahydrocyclopenta[b]pyrrole-2-carboxylic acid]
2 | ≤ 0.1 | O=C(O)c1cc2c([nH]1)CCC2Cc1ccc(Cl)cc1 (single isomer, unassigned) [Compound 15, 4-(4-chlorobenzyl)-1,4,5,6-tetrahydrocyclopenta[b]pyrrole-2-carboxylic acid]
3 | ≤ 100 | Cc1cc(C)cc(CC2CCc3[nH]c(C(=O)O)cc32)c1 (stereo not shown) [Compound 72, 4-(3,5-dimethylbenzyl)-1,4,5,6-tetrahydrocyclopenta[b]pyrrole-2-carboxylic acid]
4 | ≤ 1 | COc1ccc(CC2CCc3[nH]c(C(=O)O)cc32)cc1OC (stereo not shown) [Compound 69, 4-(3,4-dimethoxybenzyl)-1,4,5,6-tetrahydrocyclopenta[b]pyrrole-2-carboxylic acid]
5 | ≤ 1 | O=C(O)c1cc2c([nH]1)C(CCCc1ccccc1)CC2 (racemic) [Compound 134, 6-(3-phenylpropyl)-1,4,5,6-tetrahydrocyclopenta[b]pyrrole-2-carboxylic acid]
6 | ≤ 1 | O=C(O)c1cc2c([nH]1)C(c1cccc(F)c1)CC2 (stereo not shown) [Compound 111, 6-(3-fluorophenyl)-1,4,5,6-tetrahydrocyclopenta[b]pyrrole-2-carboxylic acid]
7 | ≤ 100 | O=C(O)c1cc2c([nH]1)CCC2NCc1ccc(Cl)cc1 (stereo not shown) [Compound 108, 4-(4-chlorobenzylamino)-1,4,5,6-tetrahydrocyclopenta[b]pyrrole-2-carboxylic acid]
8 | ≤ 100 | O=C(O)c1cc2c([nH]1)CCC2c1cccc(F)c1 (single isomer, unassigned) [Compound 95, 4-(3-fluorophenyl)-1,4,5,6-tetrahydrocyclopenta[b]pyrrole-2-carboxylic acid]
9 | ≤ 1 | O=C(O)c1cc2c([nH]1)C(c1ccc(Cl)cc1)CC2 (stereo not shown) [Compound 113, 6-(4-chlorophenyl)-1,4,5,6-tetrahydrocyclopenta[b]pyrrole-2-carboxylic acid]
10 | ≤ 1 | O=C(O)c1cc2c([nH]1)C(CCc1cccc3ccccc13)CC2 (stereo not shown) [Compound 132, 6-(2-(naphthalen-1-yl)ethyl)-1,4,5,6-tetrahydrocyclopenta[b]pyrrole-2-carboxylic acid]
11 | ≤ 1 | O=C(O)c1cc2c([nH]1)CCC2CCc1ccccc1 (racemic) [Compound 18, 4-phenethyl-1,4,5,6-tetrahydrocyclopenta[b]pyrrole-2-carboxylic acid]
12 | ≤ 100 | O=C(O)c1cc2c([nH]1)CCC2Cc1ccc(Cl)cc1 (single isomer, unassigned) [Compound 16, 4-(4-chlorobenzyl)-1,4,5,6-tetrahydrocyclopenta[b]pyrrole-2-carboxylic acid]
13 | ≤ 1 | CC1CCc2[nH]c(C(=O)O)cc21 (single isomer, unassigned) [Compound 5, 4-methyl-1,4,5,6-tetrahydrocyclopenta[b]pyrrole-2-carboxylic acid]

The next lines start with the compound.

Row | Compound | IC50 [µM]
14 | CC1Cc2cc(C(=O)O)[nH]c2C1 (stereo not shown) [Compound 22, 5-methyl-1,4,5,6-tetrahydrocyclopenta[b]pyrrole-2-carboxylic acid] | ≤ 1
15 | O=C(O)c1cc2c([nH]1)C(c1cccc(Br)c1)CC2 (stereo not shown) [Compound 115, 6-(3-bromophenyl)-1,4,5,6-tetrahydrocyclopenta[b]pyrrole-2-carboxylic acid] | ≤ 1
16 | O=C(O)c1cc2c([nH]1)CCC2c1cccc(F)c1 (racemic) [Compound 94, 4-(3-fluorophenyl)-1,4,5,6-tetrahydrocyclopenta[b]pyrrole-2-carboxylic acid] | ≤ 0.1
17 | COc1cccc(CC2CCc3[nH]c(C(=O)O)cc32)c1 (single isomer, unassigned) [Compound 67, 4-(3-methoxybenzyl)-1,4,5,6-tetrahydrocyclopenta[b]pyrrole-2-carboxylic acid] | ≤ 100
18 | O=C(O)c1cc2c([nH]1)C(Cc1cccc(Cl)c1)CC2 (single isomer, unassigned) [Compound 122, 6-(3-chlorobenzyl)-1,4,5,6-tetrahydrocyclopenta[b]pyrrole-2-carboxylic acid] | ≤ 1
19 | CC1CCc2[nH]c(C(=O)O)cc21 (single isomer, unassigned) [Compound 6, 4-methyl-1,4,5,6-tetrahydrocyclopenta[b]pyrrole-2-carboxylic acid] | ≤ 100
20 | O=C(O)c1cc2c([nH]1)CC1CC21 (single isomer, unassigned) [Compound 139, 1a,4,5,5a-tetrahydro-1H-4-aza-cyclopropa[α]pentalene-3-carboxylic acid] | ≤ 1
21 | Cc1cc(F)ccc1CC1CCc2[nH]c(C(=O)O)cc21 (racemic) [Compound 51, 4-(4-fluoro-2-methylbenzyl)-1,4,5,6-tetrahydrocyclopenta[b]pyrrole-2-carboxylic acid] | ≤ 0.1
22 | COc1ccc(CCC2CCc3[nH]c(C(=O)O)cc32)cc1 (stereo not shown) [Compound 34, 4-(4-methoxyphenethyl)-1,4,5,6-tetrahydrocyclopenta[b]pyrrole-2-carboxylic acid] | ≤ 100
23 | O=C(O)c1cc2c([nH]1)CCC2Cc1cc(F)cc(Cl)c1 (stereo not shown) [Compound 55, 4-(3-chloro-5-fluorobenzyl)-1,4,5,6-tetrahydrocyclopenta[b]pyrrole-2-carboxylic acid] | ≤ 0.1
24 | O=C(O)c1cc2c([nH]1)C(CCCc1ccccc1)CC2 (single isomer, unassigned) [Compound 136, 6-(3-phenylpropyl)-1,4,5,6-tetrahydrocyclopenta[b]pyrrole-2-carboxylic acid] | ≤ 1
25 | O=C(O)c1[nH]c2c(c1Br)C(CCc1ccccc1)CC2 (stereo not shown) [Compound 147, 3-bromo-4-phenethyl-1,4,5,6-tetrahydrocyclopenta[b]pyrrole-2-carboxylic acid] | ≤ 1
26 | CCCC1CCc2[nH]c(C(=O)O)cc21 (racemic) [Compound 7, 4-propyl-1,4,5,6-tetrahydrocyclopenta[b]pyrrole-2-carboxylic acid] | ≤ 0.1
27 | O=C(O)c1cc2c([nH]1)C[C@@H]1[C@H](CCc3ccccc3)[C@H]21 (racemic) [Compound 143, ±(1S,1aS,5aR)-1-phenethyl-1a,4,5,5a-tetrahydro-1H-4-aza-cyclopropa[α]pentalene-3-carboxylic acid] | ≤ 0.1
28 | O=C(O)c1cc2c([nH]1)CCC2Cc1ccc(F)cc1 (single isomer, unassigned) [Compound 41, 4-(4-fluorobenzyl)-1,4,5,6-tetrahydrocyclopenta[b]pyrrole-2-carboxylic acid] | ≤ 1
29 | O=C(O)c1cc2c([nH]1)CCC2Cc1cccc(C2CC2)c1 (stereo not shown) [Compound 73, 4-(3-cyclopropylbenzyl)-1,4,5,6-tetrahydrocyclopenta[b]pyrrole-2-carboxylic acid] | ≤ 0.1
30 | O=C(O)c1cc2c([nH]1)C(c1ccc(-c3ccccc3)cc1)CC2 (single isomer, unassigned) [Compound 120, 6-(biphenyl-4-yl)-1,4,5,6-tetrahydrocyclopenta[b]pyrrole-2-carboxylic acid] | > 100
31 | COc1cccc(CC2CCc3cc(C(=O)O)[nH]c32)c1 (single isomer, unassigned) [Compound 130, 6-(3-methoxybenzyl)-1,4,5,6-tetrahydrocyclopenta[b]pyrrole-2-carboxylic acid] | ≤ 100
